Assays:
Streptococcus mutans = assay: calorimetric measurement of suppression of bacterial growth (S. mutans); format: cell-based; conditions: single essential oil component at 0.1% in BHI
Protocol: (§1) Finally, additional calorimetric experiments were performed to measure the capability of different agents of suppressing the growth of bacteria such as Streptococcus mutans and Streptococcus mitis. The different agents 7 were applied as a solution containing a single essential oil component at a concentration of 0.1% in BHI. As figure of merits, the lag phase, defined as the postponement in time of the growth of the bacteria and measured in hours, and the growth rate (increase in number of bacteria/time), measured in J/h, of the Streptococcus populations were determined as follows: […]

Streptococcus mitis = assay: calorimetric measurement of suppression of bacterial growth (S. mitis); format: cell-based; conditions: single essential oil component at 0.1% in BHI
Protocol: as §1

Compound | growth rate (J/h) of S. mutans (Streptococcus mutans) | lag phase (h) of S. mutans growth (Streptococcus mutans) | growth rate (J/h) of S. mitis (Streptococcus mitis) | lag phase (h) of S. mitis growth (Streptococcus mitis) | growth rate (J/h) of S. mutans (Streptococcus mutans; listed as cinnamaldehyde)
CC12CCC(CC1)C(C)(C)O2 [Eucalyptol] | 1.3 J/h | 5 h | 0.14 J/h | 2 h | –
C=C(C)[C@H]1CC=C(C)CC1 [Limonene] | – | – | 0.11 J/h | 3 h | –
O=CC=Cc1ccccc1 [cinnam aldehyde, cinnamaldehyde] | 0 J/h | >24 h | 0.15 J/h | 6.2 h | without any measurable growth
COC(=O)c1ccccc1O [methyl salicylate] | 1.2 J/h | 5 h | 0.4 J/h | 23 h | –
C/C=C/c1ccc(OC)cc1 [trans-anethole] | 0.03 J/h | >24 h | 0.13 J/h | 6.4 h | –
